Results on three compounds are retold here after US20060122174A1, “Antiviral treatment” (Henderson Morley Research & Development Limited, priority 2001, published 2006).

For orientation: inhibition means the percentage by which the read-out fell short of the control.

The subject of this assay is type 2 herpes simplex strain 3345. Briefly: In vitro bioassay: inhibition of virus replication in infected African green monkey kidney cells. Particulars: for inhibition at 1000 µg/mL: frusemide 1 mg/ml, African green monkey kidney cells; for Inhibition of hsv2, Effect of bendrofluazide: 0.25 mg bendrofluazide/ml liquid medium. The format is cell-based, type 2 herpes simplex virus. An excerpt:
In vitro bioassays were undertaken to follow the anti-viral activity of a diuretic compound. […] Inhibition of virus replication was scored on the scale: […]

Where two headings read alike, the source gives them in different places.

Turning to `CCCCNC(=O)NS(=O)(=O)c1ccc(C)cc1` [tolbutamide], the “Inhibition of hsv2, effect of tolbutamide” value is “+ (20% inhibition)” (High multiplicity of infection, 0.5 mg tolbutamide/ml liquid medium); “++ (40% inhibition)” (High multiplicity of infection, 5 mg tolbutamide/ml liquid medium); “+++ (60% inhibition)” (High multiplicity of infection, 50 mg tolbutamide/ml liquid medium); “++ (40% inhibition)” (Low multiplicity of infection, 0.5 mg tolbutamide/ml liquid medium); “+++ (60% inhibition)” (Low multiplicity of infection, 5 mg tolbutamide/ml liquid medium); “+++++ (100% inhibition)” (Low multiplicity of infection, 50 mg tolbutamide/ml liquid medium). Moreover, the “Inhibition of hsv2, effect of tolbutamide” value was “+ (20% inhibition)” (Medium multiplicity of infection, 0.5 mg tolbutamide/ml liquid medium); “+++ (60% inhibition)” (Medium multiplicity of infection, 5 mg tolbutamide/ml liquid medium); “++++ (80% inhibition)” (Medium multiplicity of infection, 50 mg tolbutamide/ml liquid medium).

For the compound `NS(=O)(=O)c1cc(C(=O)O)c(NCc2ccco2)cc1Cl` [frusemide, 4-chloro-N-furfuryl-5-sulfamoylanthranilic acid], the inhibition at 1000 µg/mL (Human alphaherpesvirus 2, read-out: Inhibition of hsv2, Effect of frusemide, High multiplicity of infection) came out at 0%; the inhibition at 1000 µg/mL (Human alphaherpesvirus 2, read-out: Inhibition of hsv2, Effect of frusemide, Low multiplicity of infection) is 40%; the inhibition at 1000 µg/mL (Human alphaherpesvirus 2, read-out: Inhibition of hsv2, Effect of frusemide, Medium multiplicity of infection) is 40%.

On to `NS(=O)(=O)c1cc2c(cc1C(F)(F)F)NC(Cc1ccccc1)NS2(=O)=O` (stereo not drawn) [bendrofluazide], for which the “Inhibition of hsv2, Effect of bendrofluazide” value (“Inhibition … of bendrofluazide” below) (High multiplicity of infection) is listed as “++ (40% inhibition)”; the “Inhibition … of bendrofluazide” value (Low multiplicity of infection) is reported as “++++ (80% inhibition)”; the “Inhibition … of bendrofluazide” value (Medium multiplicity of infection) is “++++ (80% inhibition)”.
